In ChEMBL document CHEMBL1201862, “PubChem BioAssay data set” (2004):
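96-well plates; 48 h exposure; 5 concentrations. Endpoints by linear interpolation between flanking doses. Not reached: highest tested concentration assigned. Here, GI50 denotes the concentration required for 50% inhibition of growth.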 Calls of active or inactive are those of the source. Rule as the data show it: active = GI50 up to about 1.1 µM and inactive = higher.

Assays:
Experiment in all cases: NCI tumour cell line growth inhibition, 48 h
786-0 = test system: 786-0
A498 = test system: A498
A549 = test system: A549
ACHN = test system: ACHN
CAKI-1 = test system: CAKI-1
CCRF-CEM = test system: CCRF-CEM
COLO 205 = test system: COLO 205
DLD-1 = test system: DLD-1
DMS-114 = test system: DMS-114
DMS-273 = test system: DMS-273
EKVX = test system: EKVX
HCC 2998 = test system: HCC 2998
HCT-116 = test system: HCT-116
HCT-15 = test system: HCT-15
HL-60 = test system: HL-60
HOP-18 = test system: HOP-18
HOP-62 = test system: HOP-62
HOP-92 = test system: HOP-92
HT-29 = test system: HT-29
IGROV-1 = test system: IGROV-1
K562 = test system: K562
KM-20L2 = test system: KM-20L2
KM12 = test system: KM12
LOX IMVI = test system: LOX IMVI
LXFL 529 = test system: LXFL 529
M14 = test system: M14
M19-MEL = test system: M19-MEL
MOLT-4 = test system: MOLT-4
Malme-3M = test system: Malme-3M
NCI-H226 = test system: NCI-H226
NCI-H23 = test system: NCI-H23
NCI-H460 = test system: NCI-H460
NCI-H522 = test system: NCI-H522
OVCAR-3 = test system: OVCAR-3
OVCAR-4 = test system: OVCAR-4
OVCAR-5 = test system: OVCAR-5
OVCAR-8 = test system: OVCAR-8
RPMI-8226 = test system: RPMI-8226
SF-268 = test system: SF-268
SF-295 = test system: SF-295
SF-539 = test system: SF-539
SK-MEL-28 = test system: SK-MEL-28
SK-MEL-2 = test system: SK-MEL-2
SK-MEL-5 = test system: SK-MEL-5
SK-OV-3 = test system: SK-OV-3
SN12C = test system: SN12C
SNB-19 = test system: SNB-19
SNB-75 = test system: SNB-75
SNB-78 = test system: SNB-78
SR = test system: SR
SW-620 = test system: SW-620
TK-10 = test system: TK-10
U-251 = test system: U-251
UACC-257 = test system: UACC-257
UACC-62 = test system: UACC-62
UO-31 = test system: UO-31
XF498 = test system: XF498
RXF 393 = test system: RXF 393

In the case of `COc1ccc(N2C(=O)[C@@H]3[C@@H]4CC(C)CC[C@@H]4c4c([nH]c5ccccc45)[C@@H]3C2=O)cc1` (stereo not given in full), the GI50 (786-0) is reported as 7.45 µM (inactive), the GI50 (A498) is reported as 16.4 µM (inactive) and the GI50 (A549) is reported as 17.3 µM (inactive). For the same compound, the GI50 (ACHN) was 7.36 µM (inactive), the GI50 (CAKI-1) was 29 µM (inactive) and the GI50 (CCRF-CEM) was 24.2 µM (inactive). The GI50 (COLO 205) was 33 µM (inactive), the GI50 (DLD-1) was 29.5 µM (inactive) and the GI50 (DMS-114) was 31.1 µM (inactive). The GI50 (DMS-273) was 14.7 µM (inactive), the GI50 (EKVX) was 28.9 µM (inactive) and the GI50 (HCC 2998) was 13.5 µM (inactive). The GI50 (HCT-116) was 6.44 µM (inactive), the GI50 (HCT-15) was 15.3 µM and the GI50 (HL-60) was 29.1 µM (inactive). The GI50 (HOP-18) was 4.4 µM (inactive), the GI50 (HOP-62) was 12.6 µM (inactive) and the GI50 (HOP-92) was 5.92 µM (inactive). The GI50 (HT-29) was 47.4 µM (inactive), the GI50 (IGROV-1) was 18.8 µM (inactive) and the GI50 (K562) was 30.7 µM (inactive). For the same compound, the GI50 (KM-20L2) was > 54.8 µM (inactive), the GI50 (KM12) was 50.1 µM (inactive) and the GI50 (LOX IMVI) was 10.5 µM (inactive). The GI50 (LXFL 529) was 20.3 µM (inactive), the GI50 (M14) was 26.4 µM (inactive) and the GI50 (M19-MEL) was > 70.1 µM (inactive). For the same compound, the GI50 (MOLT-4) was 19.8 µM (inactive), the GI50 (Malme-3M) was 34.4 µM (inactive) and the GI50 (NCI-H226) was 7.38 µM (inactive). The GI50 (NCI-H23) was 15.5 µM (inactive), the GI50 (NCI-H460) was 13.5 µM (inactive) and the GI50 (NCI-H522) was 19.4 µM (inactive). The GI50 (OVCAR-3) was 19.8 µM (inactive), the GI50 (OVCAR-4) was 18 µM (inactive) and the GI50 (OVCAR-5) was > 77.6 µM (inactive). For the same compound, the GI50 (OVCAR-8) was 12.8 µM (inactive), the GI50 (RPMI-8226) was > 10 µM (inactive) and the GI50 (SF-268) was 13.3 µM (inactive). The GI50 (SF-295) was 12.4 µM (inactive), the GI50 (SF-539) was 8.38 µM (inactive) and the GI50 (SK-MEL-28) was 36 µM (inactive). For the same compound, the GI50 (SK-MEL-2) was 8.79 µM (inactive), the GI50 (SK-MEL-5) was 34 µM (inactive) and the GI50 (SK-OV-3) was 7.98 µM (inactive). For the same compound, the GI50 (SN12C) was 11.2 µM (inactive), the GI50 (SNB-19) was 8.24 µM (inactive) and the GI50 (SNB-75) was 2.82 µM (inactive). For the same compound, the GI50 (SNB-78) was 3.76 µM (inactive), the GI50 (SR) was 12.6 µM (inactive) and the GI50 (SW-620) was 13.1 µM (inactive). The GI50 (TK-10) was 18.8 µM (inactive), the GI50 (U-251) was 11.4 µM (inactive) and the GI50 (UACC-257) was 53.8 µM (inactive). For the same compound, the GI50 (UACC-62) was 15.9 µM (inactive), the GI50 (UO-31) was 17 µM (inactive) and the GI50 (XF498) was 8.3 µM (inactive).
`CSc1ccc(N2C(=O)C3c4[nH]c5ccccc5c4C4CCC(C(C)(C)C)CC4C3C2=O)cc1` (stereo not given) was tested, and the GI50 (786-0) was 14.9 µM (inactive), the GI50 (A498) was 17.8 µM (inactive) and the GI50 (A549) was 15.3 µM (inactive). For the same compound, the GI50 (ACHN) was 13.9 µM (inactive), the GI50 (CAKI-1) was 19.9 µM (inactive) and the GI50 (CCRF-CEM) was 8.49 µM (inactive). The GI50 (COLO 205) was 10 µM (inactive), the GI50 (DLD-1) was 52.4 µM (inactive) and the GI50 (DMS-114) was 15.2 µM (inactive). The GI50 (DMS-273) was 10.6 µM (inactive), the GI50 (EKVX) was 20.7 µM (inactive) and the GI50 (HCC 2998) was 15.6 µM (inactive). For the same compound, the GI50 (HCT-116) was 5.24 µM (inactive), the GI50 (HCT-15) was 66.2 µM and the GI50 (HL-60) was 13.7 µM (inactive). The GI50 (HOP-18) was 22.8 µM (inactive), the GI50 (HOP-62) was 12.2 µM (inactive) and the GI50 (HOP-92) was 11.3 µM (inactive). For the same compound, the GI50 (HT-29) was 21.8 µM (inactive), the GI50 (IGROV-1) was 13.8 µM (inactive) and the GI50 (K562) was 15.9 µM (inactive). The GI50 (KM-20L2) was 48.4 µM (inactive), the GI50 (KM12) was 28.4 µM (inactive) and the GI50 (LOX IMVI) was 14 µM (inactive). For the same compound, the GI50 (LXFL 529) was 18.5 µM (inactive), the GI50 (M14) was 27.5 µM (inactive) and the GI50 (M19-MEL) was 31.9 µM (inactive). For the same compound, the GI50 (MOLT-4) was 15.4 µM (inactive), the GI50 (Malme-3M) was 12.3 µM (inactive) and the GI50 (NCI-H226) was 19.1 µM (inactive). For the same compound, the GI50 (NCI-H23) was 15.5 µM (inactive), the GI50 (NCI-H460) was 14.1 µM (inactive) and the GI50 (NCI-H522) was 16.2 µM (inactive). For the same compound, the GI50 (OVCAR-3) was 41.2 µM (inactive), the GI50 (OVCAR-4) was 10.3 µM (inactive) and the GI50 (OVCAR-5) was 48.3 µM (inactive). For the same compound, the GI50 (OVCAR-8) was 12.1 µM (inactive), the GI50 (RPMI-8226) was 28.4 µM (inactive) and the GI50 (RXF 393) was 20.3 µM (inactive). For the same compound, the GI50 (SF-268) was 12.4 µM (inactive), the GI50 (SF-295) was 14.3 µM (inactive) and the GI50 (SF-539) was 18.3 µM (inactive). The GI50 (SK-MEL-28) was 13.8 µM (inactive), the GI50 (SK-MEL-2) was 17.6 µM (inactive) and the GI50 (SK-MEL-5) was 25.8 µM (inactive). For the same compound, the GI50 (SK-OV-3) was 16.6 µM (inactive), the GI50 (SN12C) was 16.1 µM (inactive) and the GI50 (SNB-19) was 19.1 µM (inactive). The GI50 (SNB-75) was 18.5 µM (inactive), the GI50 (SNB-78) was 7.94 µM (inactive) and the GI50 (SR) was 10.2 µM (inactive). For the same compound, the GI50 (SW-620) was 21.3 µM (inactive), the GI50 (TK-10) was 19.5 µM (inactive) and the GI50 (U-251) was 16.4 µM (inactive). For the same compound, the GI50 (UACC-257) was 46.8 µM (inactive), the GI50 (UACC-62) was 13.8 µM (inactive) and the GI50 (UO-31) was 16.5 µM (inactive). For the same compound, the GI50 (XF498) was 27.7 µM (inactive).
